Data set [1] concerns Neutrophil LTB4. Nature of the data set: Neutrophil LTB4 assay (calcium ionophore challenge, EIA). The data set is classed as cell-based. As to conditions: test concentration of 5 μM, human neutrophils, calcium ionophore 1 μM; for inhibition at 5 µM: Neutrophil, read-out: LTB4 percent inhibition. The method, then:
Neutrophils purified from human blood were resuspended in HBSS buffer containing calcium and magnesium to a cell density of 1×10^6/mL. Purified neutrophils were then incubated with test compounds at a test concentration of 5 μM for 15 min at 37° C. Following incubation, the cells were challenged with calcium ionophore (1 μM final) for 15 minutes at 37° C. Negative control wells were incubated with equal volume of vehicle. The reaction was stopped by transferring the plate to ice for 5 minutes. The plate was centrifuged at 1500 RPM for 5 min at 4° C. LTB4 was calculated in cell free supernatants by EIA (Assay Design Inc).

The test system of data set [2] is TXB2 Released by Human Platelets. Nature of the data set: Ionophore and arachidonic acid induced TXB2 released by human platelets (EIA). In kind it is cell-based. The conditions noted are these: human platelet-rich plasma; for IC50: challenge with calcium ionophore (10 μM) or arachidonic acid (50 μM); for inhibition at 1 µM: test concentration of 1 μM, calcium ionophore or arachidonic acid challenge, read-out: TXB2 percent inhibition. The method, then: Ionophore and Arachidonic Acid Induced TXB2 Released by Human Platelets
The plate was incubated for 15 minutes at 37° C. Following incubation, platelets were challenged with calcium ionophore (final 10 μM) or arachidonic acid (AA) (final 50 μM) and the plate was further incubated at 37° C. for 15 min. The plate was transferred to an ice bed for 5 min in order to stop the reaction. Supernatants were assayed for TXB2 production by EIA (Assay Design Inc) after diluting with assay buffer (Assay Design Inc).

Data set [3] relates to PMA Induced Acute Ear Edema. As to the kind of experiment: PMA induced acute ear edema (mouse). The conditions noted are these: ear punch weight 6 h after PMA; for % Inh (percent inhibition of edema): test compound applied topically at about 1% to about 10%, 10 min before PMA. The data set is classed as in vivo. The method, then: PMA Induced Acute Ear Edema
PMA was prepared […] in an acetone:water mixture (99:1). 10 μL of 200 ng/10 μL was applied to the left ears of the mice. Control mice received 10 μL of vehicle. Test compounds were dissolved in the vehicle and applied at a test concentration of from about 1% to about 10% (depending on solubility) at 10 min before PMA application. β-methasone (1%) was used as a control. Six hours after the PMA application, mice were sacrificed and 6 mm ear punch biopsies were removed and weighed to assess edema.

Data set [4] deals with Neutrophil LTB4. As to the kind of experiment: Neutrophil LTB4 assay (calcium ionophore challenge, EIA). In kind it is cell-based. As to conditions: human neutrophils, calcium ionophore 1 μM.

Consider 26 compounds from patent publication US20060293374A1, “Substituted isothiazolones” (priority 2005, published 2006).

On to `O=c1ccsn1Cc1cccc2ccccc12` [Cpd 2, 2-naphthalen-1-ylmethyl-isothiazol-3-one], for which the melting point lay in the range of 121 to 125 °C. In addition, the inhibition at 5 µM in data set [1] came to 81%. In data set [2], the IC50 turned out to be 3 µM.

As to `O=c1cc(Cl)sn1Cc1sc2ccccc2c1Cl` [Cpd 6, 5-chloro-2-(3-chloro-benzo[b]thiophen-2-ylmethyl)-isothiazol-3-one], the melting point was in the range of 118 to 120 °C. In data set [1], the inhibition at 5 µM was found to be 70%. Besides, the 50% inhibitory concentration (IC50) in data set [2] was determined as 0.71 µM.

Turning to `O=c1cc(Cl)sn1Cc1cc2ccccc2s1` [Cpd 7, 2-benzo[b]thiophen-2-ylmethyl-5-chloro-isothiazol-3-one], the melting point lay within 101 to 103 °C. The inhibition at 5 µM in data set [1] was determined as 95%. Further, the 50% inhibitory concentration (IC50) in data set [2] came out at 0.46 µM.

In turn, `O=c1ccsn1Cc1cc2ccccc2s1` [Cpd 9, 2-benzo[b]thiophen-2-ylmethyl-isothiazol-3-one] came in with a melting point of 144 to 146 °C. For the same compound, in data set [1], the inhibition at 5 µM was determined as 84%. Further, the IC50 in data set [2] was found to be 1.8 µM. In addition, the “% Inh (percent inhibition of edema)” value in data set [3] came to 72%.

Compound `O=c1cc(Cl)sn1Cc1ccc2c(c1)CCO2` [Cpd 16, 5-chloro-2-(2,3-dihydro-benzofuran-5-ylmethyl)-isothiazol-3-one] returned a melting point of 100 to 102 °C. Besides, the inhibition at 5 µM in data set [1] came to 97%. For the same compound, the concentration for half-maximal inhibition (IC50) in data set [2] was determined as 0.25 µM.

Turning to `O=c1cc(Cl)sn1Cc1ccc(-c2csnn2)cc1` [Cpd 21, 5-chloro-2-(4-[1,2,3]thiadiazol-4-yl-benzyl)isothiazol-3-one], the melting point was 152 to 154 °C. The inhibition at 5 µM in data set [1] came to 87%. Besides, in data set [2], the IC50 was determined as 1 µM.

For `Cc1nc(-c2ccc(Cn3sccc3=O)cc2)cs1` [Cpd 26, 2-[4-(2-methyl-thiazol-4-yl)-benzyl]-isothiazol-3-one], the melting point is 150.5 to 152 °C. For the same compound, the concentration for half-maximal inhibition (IC50) in data set [4] was found to be 1.7 µM. Also, in data set [2], the IC50 is 0.4 µM.

Consider `Cc1nc(-c2cccc(Cn3sccc3=O)c2)cs1` [Cpd 48, 2-[3-(2-methyl-thiazol-4-yl)benzyl]-isothiazol-3-one], for which the IC50 in data set [4] and in data set [2] was 1.5 µM each time.

Compound `O=c1ccsn1Cc1cccc(-c2ccco2)c1` [Cpd 49, 2-(3-furan-2-yl-benzyl)-isothiazol-3-one] had a melting point of 78 to 80 °C. In addition, the inhibition at 5 µM in data set [1] was found to be 100%. Moreover, the half-inhibitory concentration (IC50) in data set [2] is 1.2 µM.

With `O=c1ccsn1Cc1cccc(-c2ccncc2)c1` [Cpd 50, 2-(3-pyridin-4-yl-benzyl)-isothiazol-3-one], in data set [1], the inhibition at 5 µM was 100%. The IC50 in data set [2] stood at 0.5 µM.

In the case of `O=C(c1ccccc1)c1ccc(Cn2sccc2=O)cc1` [Cpd 51, 2-(4-benzoylbenzyl)-isothiazol-3-one], in data set [1], the inhibition at 5 µM was determined as 90%. In addition, in data set [2], the IC50 turned out to be 1.2 µM. Besides, the “% Inh (percent inhibition of edema)” value in data set [3] is 84%.

Regarding `O=c1cc(Cl)sn1Cc1nc(-c2ccccc2)sc1Cl` [Cpd 52, 5-chloro-2-(5-chloro-2-phenyl-thiazol-4-ylmethyl)-isothiazol-3-one], the inhibition at 5 µM in data set [1] was found to be 81%. Further, in data set [2], the IC50 is 0.4 µM.

For the compound `O=c1cc(Cl)sn1Cc1csc(-c2ccccc2)n1` [Cpd 53, 5-chloro-2-(2-phenyl-thiazol-4-ylmethyl)-isothiazol-3-one], the inhibition at 5 µM in data set [1] is 92%. Besides, the IC50 in data set [2] was found to be 0.4 µM.

With `O=c1ccsn1Cc1csc(-c2ccccc2)n1` [Cpd 54, 2-(2-phenyl-thiazol-4-ylmethyl)-isothiazol-3-one], the inhibition at 5 µM in data set [1] came out at 96%. For the same compound, the IC50 in data set [2] is 1.5 µM.

`O=c1cc(Cl)sn1Cc1ccc(-n2cc(Cl)cn2)cc1` [Cpd 55, 5-chloro-2-[4-(4-chloro-pyrazol-1-yl)-benzyl]-isothiazol-3-one]: in data set [1], the inhibition at 5 µM came out at 72%. In addition, the concentration for half-maximal inhibition (IC50) in data set [2] is 3.2 µM.

Turning to `O=c1cc(Cl)sn1Cc1ccc(-n2cccn2)cc1` [Cpd 56, 5-chloro-2-(4-pyrazol-1-yl)-benzyl-isothiazol-3-one], in data set [1], the LTB4 percent inhibition is listed as 48%. For the same compound, the IC50 in data set [2] is 0.8 µM.

Consider `O=c1ccsn1Cc1ccc(-n2cc(Cl)cn2)cc1` [Cpd 57, 2-[4-(4-chloro-pyrazol-1-yl)-benzyl]-isothiazol-3-one], for which the inhibition at 5 µM in data set [1] was 100%. For the same compound, the IC50 in data set [2] stood at 3 µM. For the same compound, in data set [3], the “% Inh (percent inhibition of edema)” value is 100%.

For `O=c1ccsn1Cc1ccc(-n2cccn2)cc1` [Cpd 58, 2-(4-pyrazol-1-yl)-benzyl-isothiazol-3-one], in data set [1], the LTB4 percent inhibition was determined as 100%. Also, the IC50 in data set [2] was determined as 1 µM.

Regarding `O=Cc1cccc(Cn2sc(Cl)cc2=O)c1` [Cpd 59, 5-chloro-2-(3-formylbenzyl)-isothiazol-3-one], the inhibition at 5 µM in data set [1] came to 96%. In addition, the IC50 in data set [2] came out at 0.6 µM.

For `O=CC#Cc1cccc(Cn2sc(Cl)cc2=O)c1` [Cpd 60, [3-(5-chloro-3-oxo-3H-isothiazol-2-ylmethyl)-phenyl]-propynal], the inhibition at 5 µM in data set [1] was 100%. The inhibition at 1 µM in data set [2] was determined as 72%.

Take `O=c1cc(Cl)sn1Cc1nc(-c2cccs2)sc1Cl` [Cpd 61, 5-chloro-2-(5-chloro-2-thiophen-2-yl-thiazol-4-ylmethyl)-isothiazol-3-one]: the inhibition at 5 µM in data set [1] was 100%. The inhibition at 1 µM in data set [2] was 49%.

Regarding `O=c1[nH]sc(Cl)c1Cc1csc(-c2cccs2)n1` [Cpd 62, 5-chloro-(2-thiophen-2-yl-thiazol-4-ylmethyl)-isothiazol-3-one], the inhibition at 5 µM in data set [1] was 96%. The IC50 in data set [2] worked out at 0.8 µM.

In the case of `O=c1ccsn1Cc1nc(-c2cccs2)sc1Cl` [Cpd 63, 2-(5-chloro-2-thiophen-2-yl-thiazol-4-ylmethyl)-isothiazol-3-one], the inhibition at 5 µM in data set [1] was 86%. The inhibition at 1 µM in data set [2] was found to be 42%.

On to `O=c1ccsn1Cc1csc(-c2cccs2)n1` [Cpd 64, 2-(2-thiophen-2-yl-thiazol-4-ylmethyl)-isothiazol-3-one], for which the inhibition at 5 µM in data set [1] came out at 89%. In data set [2], the inhibition at 1 µM was 39%.

`CC(=O)c1ccc(Cn2sc(Cl)c(Cl)c2=O)cc1` [Cpd 65, 4,5-dichloro-2-(4-acetylbenzyl)-isothiazol-3-one]: the inhibition at 5 µM in data set [1] was found to be 45%. In data set [2], the concentration for half-maximal inhibition (IC50) was 0.4 µM.

For the compound `C[C@H]1C[C@H]2[C@@H]3CCC4=CC(=O)C=C[C@]4(C)[C@@]3(F)[C@@H](O)C[C@]2(C)[C@@]1(O)C(=O)CO` [β-methasone, reference compound], the “β-methasone control, percent inhibition of edema” value in data set [3] (β-methasone (1%) used as control) worked out at 100%.
